According to PubChem BioAssay AID248 (DTP/NCI, 2004):
Values joined by “and” are separate entries in the source; they are usually repeats but may differ in a detail not shown here. Equal values may be shown once. Toxic doses and inconclusive results are not listed.

Tested on: L1210 leukemia ip in BDF1 mice, survival T/C
Experiment: NCI In Vivo Anticancer Drug Screen. Data for tumor model L1210 Leukemia (intraperitoneal) in B6D2F1 (BDF1) mice
Conditions: endpoint: mean survival time, higher = longer survival
Summary of the method: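 Transplanted-tumor mice were given test agent; controls received vehicle only. Survival readings from the two groups were divided (treated over control).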

[1] = dose: 100.0 mg/kg/injection, schedule: Q01DX009 (ip), vehicle: saline
[2] = dose: 200.0 mg/kg/injection, schedule: Q01DX009 (ip), vehicle: saline
[3] = dose: 400.0 mg/kg/injection, schedule: Q01DX009 (ip), vehicle: saline
[4] = dose: 100.0 mg/kg/injection, schedule: Q01DX001 (ip), vehicle: saline
[5] = dose: 100.0 mg/kg/injection, schedule: Q04DX003 (ip), vehicle: saline
[6] = dose: 200.0 mg/kg/injection, schedule: Q01DX001 (ip), vehicle: saline
[7] = dose: 200.0 mg/kg/injection, schedule: Q04DX003 (ip), vehicle: saline
[8] = dose: 400.0 mg/kg/injection, schedule: Q01DX001 (ip), vehicle: saline
[9] = dose: 400.0 mg/kg/injection, schedule: Q04DX003 (ip), vehicle: saline

Compound: CCCCNC1=C(N2CC2)C(=O)C(NCCCC)=C(N2CC2)C1=O
- T/C (dose: 1.25 mg/kg/injection, schedule: Q01DX001 (ip), vehicle: saline): 105 % of control
- T/C (dose: 1.25 mg/kg/injection, schedule: Q01DX009 (ip), vehicle: saline): 110 % of control and 111 % of control
- T/C (dose: 1.56 mg/kg/injection, schedule: Q04DX003 (ip), vehicle: Klucel (hydroxypropylcellulose) (HPC)): 113 % of control
- T/C (dose: 2.5 mg/kg/injection, schedule: Q01DX001 (ip), vehicle: saline): 100 % of control
- T/C (dose: 2.5 mg/kg/injection, schedule: Q01DX009 (ip), vehicle: saline): 105 % of control and 109 % of control
- T/C (dose: 3.12 mg/kg/injection, schedule: Q04DX003 (ip), vehicle: Klucel (hydroxypropylcellulose) (HPC)): 121 % of control
- T/C (dose: 5.0 mg/kg/injection, schedule: Q01DX001 (ip), vehicle: saline): 98 % of control
- T/C (dose: 5.0 mg/kg/injection, schedule: Q01DX009 (ip), vehicle: saline): 118 % of control
- T/C (dose: 10.0 mg/kg/injection, schedule: Q01DX001 (ip), vehicle: saline): 105 % of control
- T/C (dose: 10.0 mg/kg/injection, schedule: Q01DX009 (ip), vehicle: saline): 114 % of control
- T/C (dose: 12.5 mg/kg/injection, schedule: Q04DX003 (ip), vehicle: Klucel (hydroxypropylcellulose) (HPC)): 110 % of control
- T/C (dose: 18.0 mg/kg/injection, schedule: Q04DX003 (ip), vehicle: Klucel (hydroxypropylcellulose) (HPC)): 112 % of control

Compound: CCC(C)Nc1ccc(NC(=S)Nc2ccc(NC(C)CC)cc2)cc1 (stereo not given)
- T/C (dose: 100.0 mg/kg/injection, schedule: Q04DX002 (ip), vehicle: other): 89 % of control
- T/C (dose: 200.0 mg/kg/injection, schedule: Q04DX002 (ip), vehicle: other): 86 % of control
- T/C (dose: 400.0 mg/kg/injection, schedule: Q04DX002 (ip), vehicle: other): 86 % of control

Compound: CCO[Si](CC)(CC)CC
- T/C [1]: 100 % of control
- T/C [2]: 98 % of control
- T/C [3]: 102 % of control

Compound: O=C/C=C/c1cccnc1
- T/C (dose: 25.0 mg/kg/injection, schedule: Q01DX009 (ip), vehicle: saline with Tween-80): 92 % of control
- T/C (dose: 50.0 mg/kg/injection, schedule: Q01DX009 (ip), vehicle: saline with Tween-80): 100 % of control
- T/C (dose: 100.0 mg/kg/injection, schedule: Q01DX009 (ip), vehicle: saline with Tween-80): 101 % of control
- T/C (dose: 200.0 mg/kg/injection, schedule: Q01DX009 (ip), vehicle: saline with Tween-80): 99 % of control

Compound: CC(C)(C)NC(=O)NC(C)(C)C
- T/C (dose: 50.0 mg/kg/injection, schedule: Q04DX002 (ip), vehicle: Klucel (hydroxypropylcellulose) (HPC)): 95 % of control
- T/C (dose: 100.0 mg/kg/injection, schedule: Q04DX002 (ip), vehicle: Klucel (hydroxypropylcellulose) (HPC)): 92 % of control
- T/C (dose: 200.0 mg/kg/injection, schedule: Q04DX002 (ip), vehicle: Klucel (hydroxypropylcellulose) (HPC)): 103 % of control

Compound: C[N+](C)(C)CC1CCCCC1
- T/C (dose: 75.0 mg/kg/injection, schedule: Q01DX001 (ip), vehicle: saline): 103 % of control

Compound: COc1cccc(C2CCCCCC2OS(C)(=O)=O)c1OC (stereo not given)
- T/C [4]: 109 % of control
- T/C [5]: 102 % of control
- T/C [6]: 102 % of control
- T/C [7]: 109 % of control
- T/C [8]: 112 % of control
- T/C [9]: 102 % of control

Compound: C/C(CC(=O)Nc1ccccn1)=N\c1ccccn1
- T/C [4]: 98 % of control
- T/C [6]: 92 % of control
- T/C [8]: 88 % of control

Compound: CCC(CC)C(=O)O.[Ag]
- T/C [4]: 101 % of control

Compound: O=C(NO)c1ccc(C(=O)NO)c(Br)c1
- T/C [1]: 103 % of control
- T/C [5]: 107 % of control
- T/C [2]: 112 % of control
- T/C [7]: 107 % of control
- T/C [3]: 108 % of control
- T/C [9]: 105 % of control

Compound: O=P1(NCCCl)OCCC(O)N1CCCl (stereo not given)
- T/C (dose: 100.0 mg/kg/injection, schedule: Q01DX001 (ip), vehicle: DMSO): 242 % of control
- T/C (dose: 200.0 mg/kg/injection, schedule: Q01DX001 (ip), vehicle: DMSO): 284 % of control
- T/C (dose: 400.0 mg/kg/injection, schedule: Q01DX001 (ip), vehicle: DMSO): 273 % of control
